Results on 21 molecules are retold here after PubChem BioAssay (NCI).

“And” between values parts separate entries of the source, which are not always exact repeats. Equal entries are not always repeated.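 Following 48 hours of exposure in 96-well plates, responses at five concentrations were used to interpolate endpoints linearly. The concentration for 50% growth inhibition is given as GI50. TGI denotes the concentration required for complete inhibition of growth.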

Among the test systems are CAKI-1 renal; NCI-H460 lung; ACHN renal; MCF7 breast; TK-10 renal; DU-145 prostate; IGROV1 ovarian; RXF 393 renal; EKVX NSCLC; UACC-257 melanoma.
Assay in all cases: NCI-60 cell line screen, 48 h

Consider `Nc1c(C(=O)Nc2cccc(Cl)c2)sc2nc3c(cc12)C(O)CCC3` (configuration not stated), for which the GI50 was 0.432 µM with CAKI-1 renal; 0.388 µM with NCI-H460 lung; 1.04 µM in the assay with ACHN renal; 344 nM in the assay on MCF7 breast; 10.8 µM with TK-10 renal; 388 nM with DU-145 prostate. Moreover, the GI50 is 0.992 µM in the assay on IGROV1 ovarian and 396 nM in the assay with RXF 393 renal. For the same molecule, the TGI amounted to 30.4 µM in the assay with CAKI-1 renal; 16.8 µM with NCI-H460 lung; 23.4 µM in the assay with ACHN renal; 53.4 µM in the assay with MCF7 breast; 36.8 µM in the assay with TK-10 renal; 16.3 µM with DU-145 prostate. Moreover, the TGI amounted to 40.7 µM with IGROV1 ovarian and 2.87 µM with RXF 393 renal.

Regarding `O=C(c1ccccc1)n1cc(/C=C/[N+](=O)[O-])c2ccccc21`, the TGI in the assay with CAKI-1 renal was above 100 µM; with NCI-H460 lung, 43.3 µM; in the assay on ACHN renal, above 100 µM; in the assay with TK-10 renal, above 100 µM; in the assay on EKVX NSCLC, above 100 µM; in the assay with UACC-257 melanoma, 47.3 µM. Further, the TGI with IGROV1 ovarian was determined as 54.7 µM; with RXF 393 renal, 36.9 µM.

Consider `O=c1cccccc1[O-].O=c1cccccc1[O-].O=c1cccccc1[O-].[Nd+3]`, for which the TGI in the assay on CAKI-1 renal, in the assay with NCI-H460 lung, in the assay with ACHN renal, in the assay with TK-10 renal, in the assay with EKVX NSCLC and in the assay on UACC-257 melanoma was above 100 µM each time. The TGI with IGROV1 ovarian is above 100 µM; in the assay on RXF 393 renal, 50.2 µM.

In the case of `CCCCCCCCCCCCC(O)C1CCC(C(O)CCCCC(O)CCCCCC2CC(CC(C)=O)C(=O)O2)O1` (configuration not stated), the GI50 in the assay on CAKI-1 renal is 2.29 µM; in the assay on TK-10 renal, 2.4 µM; with EKVX NSCLC, 1.08 µM; in the assay with UACC-257 melanoma it was 1.13 µM; in the assay with IGROV1 ovarian, 1.49 µM; in the assay with RXF 393 renal it was 5330 nM. For the same molecule, the TGI is 22.3 µM with CAKI-1 renal; above 43.8 µM in the assay with NCI-H460 lung; 26.1 µM in the assay with ACHN renal; 3.82 µM with MCF7 breast; 14.1 µM with TK-10 renal; 4.11 µM and 20.8 µM in the assay on EKVX NSCLC. Besides, the TGI with UACC-257 melanoma is 5.08 µM and 6.25 µM; with IGROV1 ovarian, 3.1 µM and 26.6 µM; in the assay on RXF 393 renal, 21.4 µM.

On to `Cc1ccccc1N(CCC#N)C1=NN(C(=O)CC(=O)Nc2ccc(Cl)cc2)C(c2ccccc2)C1` (configuration not stated), for which the TGI with NCI-H460 lung, in the assay with ACHN renal, in the assay with EKVX NSCLC, in the assay on UACC-257 melanoma, in the assay with IGROV1 ovarian and in the assay with RXF 393 renal was above 100 µM each time.

Regarding `CC(=O)OC(COc1ccc2c(c1)[n+]([O-])nc(N)[n+]2[O-])CN1CCCCC1` (configuration not stated), the TGI with CAKI-1 renal was above 100 µM; with NCI-H460 lung, 21.8 µM; in the assay on ACHN renal, 39.3 µM; in the assay with MCF7 breast it was 65.8 µM; in the assay on TK-10 renal, 96.4 µM; in the assay with UACC-257 melanoma it was 29.1 µM. In addition, the TGI was 54.9 µM with DU-145 prostate and above 100 µM in the assay with RXF 393 renal.

With `CC(=O)Oc1ccc2c(=O)c(C(C)=O)coc2c1`, the TGI in the assay on CAKI-1 renal, in the assay with NCI-H460 lung, in the assay with ACHN renal, in the assay on TK-10 renal, in the assay with EKVX NSCLC and with UACC-257 melanoma was above 100 µM in each case. For the same molecule, the TGI in the assay on IGROV1 ovarian and with RXF 393 renal was above 100 µM throughout.

As for `CCCCCOC(=O)Nc1nc(=O)n(C2OC(C)C(O)C2O)cc1F` (configuration not stated), the GI50 with CAKI-1 renal, with TK-10 renal and in the assay with UACC-257 melanoma was above 10000 µM in each case. Besides, the TGI in the assay with CAKI-1 renal, in the assay with TK-10 renal, in the assay on UACC-257 melanoma and in the assay on IGROV1 ovarian was above 10000 µM throughout.

For `OC1CC(O)O[C@H](c2ccccc2)C1` (some centres not stated), the TGI in the assay with CAKI-1 renal, with NCI-H460 lung, with ACHN renal, with TK-10 renal, in the assay on EKVX NSCLC and in the assay on UACC-257 melanoma was above 100 µM throughout. The TGI with IGROV1 ovarian and in the assay on RXF 393 renal was above 100 µM throughout.

With `CC(=O)OCc1nnn2c1C(OC(C)=O)CC2` (configuration not stated), the TGI with CAKI-1 renal, with NCI-H460 lung, in the assay with ACHN renal, in the assay with TK-10 renal, in the assay with EKVX NSCLC and in the assay on UACC-257 melanoma was above 100 µM in each case. Further, the TGI in the assay with IGROV1 ovarian and in the assay with RXF 393 renal was above 100 µM each time.

As to `NNC(=O)/C(NC(=O)c1ccccc1)=C(\N)c1cccc([N+](=O)[O-])c1`, the TGI in the assay on CAKI-1 renal, in the assay on NCI-H460 lung, in the assay with ACHN renal, with TK-10 renal, with EKVX NSCLC and in the assay with UACC-257 melanoma was above 100 µM each time. Further, the TGI with IGROV1 ovarian and with RXF 393 renal was above 100 µM throughout.

As to `CC(=O)[O-].CC(=O)[O-].O=C([CH-]C(=O)c1ccccc1)c1ccccc1.[Nd+3].[OH3+]`, the GI50 in the assay with CAKI-1 renal was 27.9 µM; in the assay on NCI-H460 lung, 16.7 µM; with ACHN renal, 31.3 µM; in the assay with TK-10 renal it was 27 µM; in the assay with EKVX NSCLC, 24.5 µM; in the assay on UACC-257 melanoma, 17.9 µM. Besides, the GI50 in the assay with IGROV1 ovarian is 28.5 µM. Also, the TGI in the assay with CAKI-1 renal was 91.3 µM; with NCI-H460 lung it was above 100 µM; in the assay with ACHN renal, above 100 µM; in the assay on TK-10 renal, 87.6 µM; with EKVX NSCLC, 76.5 µM; in the assay with UACC-257 melanoma, 54.9 µM. The molecule further displayed a TGI in the assay on IGROV1 ovarian above 100 µM.

For the molecule `Cc1[nH]c(=O)n2c(C)nnc2c1C(=O)O`, the TGI in the assay with CAKI-1 renal, in the assay with NCI-H460 lung, in the assay with ACHN renal, with TK-10 renal, with EKVX NSCLC and in the assay with IGROV1 ovarian was above 100 µM each time. The molecule further gave a TGI with RXF 393 renal above 100 µM.

Regarding `OC1(C(Sc2ccccc2)Sc2ccccc2)CCCCCC1`, the TGI in the assay with CAKI-1 renal was 74.9 µM; in the assay with NCI-H460 lung, 75.5 µM; in the assay on ACHN renal, 64.5 µM; in the assay on TK-10 renal, above 100 µM; in the assay on EKVX NSCLC, 63.5 µM; with UACC-257 melanoma, 69.4 µM.

`CC[O-].CC[O-].O=C1C=C([O-])C(=O)c2ccccc21.O=C1C=C([O-])C(=O)c2ccccc21.[Ti+4]`: the GI50 in the assay with CAKI-1 renal was above 100 µM; in the assay with NCI-H460 lung, 7.76 µM; in the assay with ACHN renal, 71 µM; in the assay on TK-10 renal, above 67.7 µM; in the assay on EKVX NSCLC, above 100 µM; in the assay on UACC-257 melanoma it was above 27.9 µM. Also, the figures for the GI50 in the assay on IGROV1 ovarian and in the assay on RXF 393 renal were above 100 µM and above 100000 nM, respectively. Moreover, the TGI in the assay on CAKI-1 renal is above 100 µM; in the assay with NCI-H460 lung, above 92.9 µM; in the assay on ACHN renal, above 100 µM; in the assay on TK-10 renal, above 100 µM; in the assay on EKVX NSCLC, above 100 µM; with UACC-257 melanoma, above 100 µM. Moreover, the TGI in the assay with IGROV1 ovarian and in the assay with RXF 393 renal was above 100 µM throughout.

With `C/C=C1\Oc2ccc(OC)cc2S1(=O)=O`, the TGI with CAKI-1 renal, in the assay on NCI-H460 lung, in the assay with ACHN renal, in the assay on TK-10 renal, in the assay with EKVX NSCLC and with UACC-257 melanoma was above 100 µM each time. In addition, the TGI with IGROV1 ovarian and in the assay with RXF 393 renal was above 100 µM each time.

As to `O=C(O)C1=Cc2cccc3cccc(c23)C1=O`, the TGI in the assay with CAKI-1 renal, in the assay with NCI-H460 lung, in the assay on ACHN renal, in the assay on TK-10 renal, in the assay with EKVX NSCLC and with UACC-257 melanoma was above 100 µM in each case. The TGI with IGROV1 ovarian and in the assay with RXF 393 renal was above 100 µM throughout.

Turning to `C[C@@H](NC1CCCC[C@@H]1O)c1ccccc1` (some centres not stated), the TGI in the assay with CAKI-1 renal, with NCI-H460 lung, with ACHN renal, in the assay on TK-10 renal, in the assay on EKVX NSCLC and in the assay on UACC-257 melanoma was above 100 µM throughout. Besides, the TGI in the assay on IGROV1 ovarian and in the assay on RXF 393 renal was above 100 µM in each case.

For the molecule `CCN(N=O)C1C2(CCCC2)NC(=O)C12CCCC2` (configuration not stated), the TGI with NCI-H460 lung, with ACHN renal, in the assay on TK-10 renal, in the assay on EKVX NSCLC, in the assay on UACC-257 melanoma and in the assay on IGROV1 ovarian was above 100 µM throughout. The molecule also displayed a TGI in the assay on RXF 393 renal above 100 µM.

In the case of `COc1ccc(-c2cc(=O)c3c(OC)c4ccoc4c(/C=C/C=O)c3o2)cc1`, the GI50 is 5.03 µM with CAKI-1 renal; 4.7 µM with NCI-H460 lung; 19.3 µM with ACHN renal; 1630 nM in the assay on MCF7 breast; 3.63 µM in the assay on UACC-257 melanoma; 4530 nM in the assay on DU-145 prostate. For the same molecule, the values for the GI50 with IGROV1 ovarian and with RXF 393 renal were 13.6 µM and 2150 nM, respectively. Further, the TGI is above 100 µM in the assay with CAKI-1 renal; 39.4 µM in the assay on NCI-H460 lung; above 100 µM in the assay on ACHN renal; above 100 µM with MCF7 breast; 14.2 µM in the assay with UACC-257 melanoma; 18.9 µM with DU-145 prostate. In addition, the results for the TGI with IGROV1 ovarian and in the assay on RXF 393 renal were above 100 µM and 4.49 µM, respectively.

Take `CCOC(=O)CCc1c(C)c2c(OC)cc(OC)cc2oc1=O`: the TGI with CAKI-1 renal, in the assay with NCI-H460 lung, in the assay on ACHN renal, in the assay with TK-10 renal, in the assay with EKVX NSCLC and in the assay on UACC-257 melanoma was above 100 µM each time. Moreover, in the assay on RXF 393 renal, the TGI is 82.4 µM.
